Assay results reported in patent US8362057B2, “Imidazolecarboxamide derivatives as fructose-1,6-bisphosphatase inhibitors, and pharmaceutical compositions comprising same” (Merck Patent Gesellschaft mit beschränkter Haftung, priority 2005, dated 2013).

These compounds were tested against T1, human liver recombinant fructose-1,6-bisphosphatase (hFBPase) (Homo sapiens, UniProt P09467) (assay: Inhibition of human liver recombinant fructose-1,6-bisphosphatase (spectrophotometric coupled PGI/G6PDH assay)). Conditions: human liver recombinant enzyme; 0.167 mM fructose-1,6-bisphosphate, pH 7.5, room temperature, 340 nm.
T1 sequence (P09467 1-338): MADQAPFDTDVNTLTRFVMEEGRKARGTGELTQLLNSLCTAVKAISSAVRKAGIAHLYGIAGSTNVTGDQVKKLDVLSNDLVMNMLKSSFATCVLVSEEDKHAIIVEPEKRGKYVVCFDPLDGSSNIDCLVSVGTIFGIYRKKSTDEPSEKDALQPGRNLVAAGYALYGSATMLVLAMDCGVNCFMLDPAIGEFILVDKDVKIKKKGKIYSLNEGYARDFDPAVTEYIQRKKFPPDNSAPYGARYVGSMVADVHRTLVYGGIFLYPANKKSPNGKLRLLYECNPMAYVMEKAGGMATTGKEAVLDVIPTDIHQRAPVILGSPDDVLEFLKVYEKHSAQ
Format: biochemical
Experimental: Method for Measuring the Inhibition of Human Liver Recombinant Fructose-1,6-bisphosphatase
The enzymatic activity is measured by using a spectrophotometric method by means of reactions coupling the formation of the product (fructose-6-phosphate) to the reduction of NADP+ via phosphoglucoisomerase (PGI) and glucose-6-phosphate dehydrogenase (G6PDH).
The reaction mixtures (250 μl) are prepared in 96-well plates and are composed of 20 mM triethanolamine, pH 7.5, 2 mM MgCl2, 0.1 mM EDTA, 40 mM ammonium sulfate, 0.5 mM NADP, 1 U/ml G6PDH, 1 U/ml PGI and 0.167 mM of substrate (fructose-1,6-bisphosphate).
The inhibitors are prepared at 10^−2 M in 100% DMSO and tested at 10^−5 M (DMSO 0.1% final).
The reactions are initiated by addition of human liver recombinant enzyme fructose-1,6-bisphosphatase (hFBPase) and monitored for 30 minutes at 340 nm, at room temperature, in a Tecan plate reader.
For `CCCc1ccc(C(=O)Nc2[nH]c(Cc3ccc(C(=O)O)o3)nc2C(N)=O)cc1` [Example 6, 5-[4-Carbamoyl-5-(4-propylbenzoylamino)-1H-imidazol-2-ylmethyl]furan-2-carboxylic acid], the IC50 was 28 µM.
With `CC(C)c1cccc(C(C)C)c1NC(=O)Nc1[nH]c(Cc2ccc(C(=O)O)o2)nc1C(N)=O` [Example 7.9, 5-{4-Carbamoyl-5-[3-(2,6-diisopropylphenyl)ureido]-1H-imidazol-2-yl-methyl}furan-2-carboxylic acid] the IC50 was 42 µM.
In the case of `CCCCCc1ccc(NC(=O)Nc2[nH]c(Cc3ccc(C(=O)O)o3)nc2C(N)=O)cc1` [Example 7.8, 5-{4-Carbamoyl-5-[3-(4-pentylphenyl)ureido]-1H-imidazol-2-ylmethyl}furan-2-carboxylic acid], the IC50 is reported as 24 µM.
Compound `CC(C)(C)c1ccc(C(=O)Nc2[nH]c(Cc3ccc(C(=O)O)o3)nc2C(N)=O)cc1` [Example 6.8, 5-[5-(4-tert-Butylbenzoylamino)-4-carbamoyl-1H-imidazol-2-ylmethyl]furan-2-carboxylic acid] has an IC50 of 23 µM.
With `CC(C)(C)c1ccc(C(=O)Nc2[nH]c(Cc3ccc(C(=O)N4CCCC4)o3)nc2C(N)=O)cc1` [Example 8.5, 5-(4-tert-Butylbenzoylamino)-2-[5-(pyrrolidine-1-carbonyl)furan-2-yl-methyl]-1H-imidazole-4-carboxamide] the IC50 was 36 µM.
